Assay results reported in US8552000B2, “Therapeutic agent for senile dementia” (Dainippon Sumitomo Pharma Co., Ltd., priority 2003, dated 2013).

Tested on: scopolamine-induced cognitive/memory dysfunction models
Test: one step-through passive avoidance test, scopolamine-induced amnesia
Type: in vivo, Male Wistar rats
Procedure: Male Wistar rats (7 weeks old) were used. As a test medicament, (1R,2S,3R,4S)—N-|(1R,2R)-2-[4-(1,2-benzisothiazol-3-yl)-1-piperazinyl-methyl]-1-cyclohexylmethyl]-2,3-bicycl[2.2.1]heptanedicarboxylmide (Compound A) was suspended in 0.5% methyl cellulose (MC) solution. As an agent for inducing amnesia, scopolamine (manufactured by Wako Pure Chemical Industries, Ltd., product No. 198-07901), which is an acethylcoline receptor blocker, was dissolved in saline solution (manufactured by TERUMO CORPORATION). Compound A at a dose of 3 mg/kg or 30 mg/kg, or 0.5% MC as a control was orally administered to the animals one hour prior to the training step in the one step-through passive avoidance test, and then, scopolamine at a dose of 0.5 mg/kg or a saline solution as a control was subcutaneously administered to the animals 30 minutes prior to the training step. The volume of each solution to be administered was 5 ml/kg each.
The one step-through passive avoidance test in rats was carried out in the following manners with using an apparatus consisting of a light-dark box and an electric stimulator (manufactured by O'hara & Co., Ltd., product no. PA-2030A) as an experimental apparatus. Namely, on Day 1, after the medicament and the agent for inducing amnesia were administered, the rats were put into the light box of the experimental apparatus where the back of each rat was directed to the dark box. Then, 10 seconds later, a guillotine door set at the border between the dark box and the light box was opened. Due to the habits of the rats, once the rats entered into the dark box, the guillotine door was quickly closed. At three seconds after the entering into the dark box, an electroconvulsive shock (0.5 mA, for 3 seconds) was given to the rats. Again, the guillotine door was opened, and after the rats spontaneously returned to the light box, the animals were transferred into the home cage. The period between the time just after the guillotine door was opened and the time at which the rats entered into the dark box was measured as a step-through latency.
On Day 2 of the experiment, a test was carried out about 24 hours after the training. The procedures of the test were carried out in the same manner to the training step except that an electroconvulsive shock was not given. The step-through latency in the test was measured up to 300 seconds, and the step-through latency over 300 seconds was regarded as 300 seconds. FIG. 1 and FIG. 2 show the effects of Compound A on the scopolamine-induced cognitive/memory dysfunction models in the one step-through passive avoidance test when it was orally administered at a dosage of 3 mg/kg or 30 mg/kg. […] The number of the animals was 15 per group, and the data was expressed in mean±SEM.

## CN1[C@@H]2C[C@@H](OC(=O)[C@H](CO)c3ccccc3)C[C@H]1[C@@H]1O[C@@H]12 [scopolamine, reference compound]
Scopolamine 0.5 mg/kg s.c. alone (with 0.5% MC), vs saline solution
  step-through latency during the training: did not affect
Scopolamine 0.5 mg/kg s.c. alone (with 0.5% MC), vs saline solution, about 24 hours after training
  step-through latency during the test: significantly shorter

## O=C1[C@@H]2[C@@H]3CC[C@@H](C3)[C@@H]2C(=O)N1C[C@@H]1CCCC[C@H]1CN1CCN(c2nsc3ccccc23)CC1 [Compound A]
Compound A 3 mg/kg orally one hour prior to training, scopolamine 0.5 mg/kg s.c. 30 minutes prior, vs 0.5% MC+scopolamine
  step-through latency during the training: slightly shortened
Compound A 30 mg/kg orally plus scopolamine 0.5 mg/kg s.c., test about 24 hours after training, vs 0.5% MC+scopolamine
  step-through latency during the test: significantly extended
Overall finding of the passive avoidance test in rats, oral administration
  improving effect of scopolamine-induced cognitive/memory dysfunctions: exhibited an improving effect
